Results taken from US20240197891A1, “PHARMACEUTICAL COMPOSITIONS COMPRISING POH DERIVATIVES” (UNIVERSITY OF SOUTHERN CALIFORNIA, priority 2021, published 2024).

Legend:
[1] = tested on: skin inflammation induced by asTPA; experiment: asTPA-induced skin inflammation in mice; format: in vivo, mouse; conditions: topical, 3 days pretreatment plus 7 days asTPA, glycerol:ethanol (90:10)
Procedure: A first group of mice were pre-treated with a solution of 50 microliters (μL) of a conjugate of POH and linoleic acid (e.g., linoleoyl ester of POH) in a vehicle of a glycerol:ethanol (90:10) mixture. The POH-linoleic acid conjugate solution was applied on the hip flank of the mice for a period of 3 days. A second, control group of mice were treated solely with the glycerol:ethanol (90:10) vehicle.
After pre-treatment, skin inflammation was induced on the first and second groups of mice by daily cutaneous application of an acetonic solution of 12-0-Tetradecanoylphorbol-13-acetate (asTPA) (which is a known irritant) to the backs of the mice over seven days. The asTPA was not applied to a further control group. To facilitate application of the asTPA, mice were anaesthetized by inhalation of isofluorane. 100 microliters of asTPA (corresponding to 20 micrograms (μg) of TPA) was then applied onto the skin of the mice. Upon evaporation of the asTPA, the mice were returned to their cages.
During the seven-day period in which the first and second groups of mice were subjected to application of asTPA, the first group continued to receive treatment of the POH-linoleic acid conjugate and vehicle solution, and the second group continued to receive treatment of the vehicle. At the end of the seven-day period, the mice were photographed.

IL-6 = experiment: Serum IL-6 following UV exposure; format: in vivo, mouse
Procedure: SKH-1 hairless mice were treated with 10 mg/kg POH-LA conjugate freshly prepared daily. The POH-LA conjugate was formulated in glycerol:ethanol (90:10) while the control animals received the glycerol:ethanol vehicle only or the commercially available sunblock (Well & Good Sun Protection Wipes SPF 15). Additional test groups were treated with POH formulated in the glycerol:ethanol vehicle or linoleic acid formulated in the glycerol:ethanol vehicle. 50 μL of each formulation was placed on a area 1 cm^2 area that was exposed to the UV light. The mice were treated with their respective formulations after exposure to the UV light. In FIG. 22A, the mouse was treated with sunblock. In FIG. 22B, the mouse was treated with POH. In FIG. 22C, the mouse was treated with linoleic acid. In FIG. 22D, the mouse was treated with POH-LA conjugate. […] The POH-LA conjugate, POH or linoleic acid solutions were gently spread on the skin surface and allowed to air dry. The sunblock mouse was gently wiped on the exposure area with the sunblock towelette. This exposure and treatment went on for a maximum of 10 weeks. Throughout the experimental period the animals were photographed and weighed. At the end of the experimental period the mice were photographed and euthanized, followed by skin and blood collection. Blood was analyzed for markers of inflammation and DNA recovered from the exposed area of the skin and analyzed for markers of DNA damage.
Furthermore, blood samples were taken from each mouse 4 hours after the last cutaneous treatment. About 0.5 mL of blood was collected by cardiac puncture […]. Serum was aliquoted in Eppendorf tubes and store at −80° C. as preparation for cytokine analyses. […]
Mice were treated with 10 mg/kg POH-LA conjugate freshly prepared daily. […] Blood was analyzed for markers of inflammation and DNA recovered from the exposed area of the skin and analyzed for markers of DNA damage.

[2] = tested on: USC-04 glioma cancer stem cells; experiment: MTT cytotoxicity assay, USC-04 glioma cancer stem cells; format: cell-based; conditions: USC-04; increasing concentrations (TMZ 0-400 uM; POH 0-2 mM)
Excerpt: Cancer Lett. 2011 Mar. 28; 302(2):100-8.

[3] = tested on: TMZ sensitive (U251) cells; experiment: Colony forming assay, TMZ sensitive U251 cells; format: cell-based, human; conditions: TMZ sensitive U251 cells
Procedure: Colony forming assays were carried out after cells were treated with TMZ alone, POH alone, and the TMZ-POH conjugate. […] Cancer Lett. 2011 Mar. 28; 302(2):100-8.

| Structure (SMILES) | skin appearance where asTPA was applied [1] | IL-6 levels (IL-6) [pg/mL] | cytotoxicity (MTT) [2] | cytotoxicity (colony forming assay) [3] |
| --- | --- | --- | --- | --- |
| C=C(C)[C@@H]1CC=C(COC(=O)CCCCCCC/C=C\C/C=C\CCCCC)CC1 [POH-LA conjugate, Octadeca-9,12-dienoic acid 4-isopropenyl-cyclohex-1-enylmethyl ester] | no inflammation or flaking | 15.2 ± 4.1 |  |  |
| C=C(C)[C@@H]1CC=C(CO)CC1 [POH, perillyl alcohol] |  | 17.9 ± 2.8 | demonstrated cytotoxicity | demonstrated cytotoxicity |
